Holding throughout (assay): radiometric kinase profiling (33 PanQinase)
Common to all, as to assay type: biochemical

One experiment concerns the target T1, PIM2 (Homo sapiens, UniProt Q9P1W9).
T1 construct: purchased ProQinase (33PanQinase Activity Assay)
The following applies: read-out: Inhibitory effect (%) PIM2. The procedure:
(§1) The kinase inhibition profile of the compounds was determined by testing 96 protein kinases’ activity using a radiometric protein kinase assay (33 PanQinase® Activity Assay, Proqinase, Germany). In brief, 10 µL of non-radioactive ATP solution (in H2O), 25 µL of assay buffer/[γ-33 P]-ATP mixture, 5 µL of 0.1 μM the tested compound in 10% DMSO and 10 µL of enzyme/substrate were mixed in 96-well FlashPlatesTM (Perkin Elmer, Boston, MA, USA). The reaction was conducted at 30 °C for 60 min. To stop the reaction, 50 µL of 2% (v/v) H3PO4 was added into the protein kinase reaction cocktails. After which, with 200 µL 0.9% (w/v) NaCl twice, the incorporation of ^33 Pi (counting of “cpm”) was determined with a microplate scintillation counter (Wallac Microbeta, Boston, MA, USA). All protein kinase assays were performed using a BeckmanCoulter Biomek 2000/SL robotic system (Brea, CA, USA). The residual activity (in %) for each compound was normalized to 100% enzyme activity (untreated control) and background (negative control).

The next experiment addresses T2, PHKG2 (Homo sapiens, UniProt P15735).
T2 construct: purchased ProQinase (33PanQinase Activity Assay)
T2 sequence (P15735 1-406): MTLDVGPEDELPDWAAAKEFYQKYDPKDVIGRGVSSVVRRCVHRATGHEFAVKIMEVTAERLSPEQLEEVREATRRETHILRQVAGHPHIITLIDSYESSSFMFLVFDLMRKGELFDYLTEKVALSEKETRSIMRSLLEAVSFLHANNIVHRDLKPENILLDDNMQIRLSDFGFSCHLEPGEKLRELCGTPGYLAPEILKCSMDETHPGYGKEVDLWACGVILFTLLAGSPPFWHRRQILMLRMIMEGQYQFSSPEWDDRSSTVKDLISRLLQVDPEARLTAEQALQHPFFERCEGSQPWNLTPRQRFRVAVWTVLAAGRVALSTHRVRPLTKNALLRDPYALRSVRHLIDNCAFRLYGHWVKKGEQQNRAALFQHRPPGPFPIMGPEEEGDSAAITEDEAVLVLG
The following applies: read-out: Inhibitory effect (%) PHKG2. The procedure:
as §1

The target in another experiment is T3, ACVR1B (Homo sapiens, UniProt P36896).
T3 construct: purchased Proqinase, Germany
T3 sequence (P36896 24-505): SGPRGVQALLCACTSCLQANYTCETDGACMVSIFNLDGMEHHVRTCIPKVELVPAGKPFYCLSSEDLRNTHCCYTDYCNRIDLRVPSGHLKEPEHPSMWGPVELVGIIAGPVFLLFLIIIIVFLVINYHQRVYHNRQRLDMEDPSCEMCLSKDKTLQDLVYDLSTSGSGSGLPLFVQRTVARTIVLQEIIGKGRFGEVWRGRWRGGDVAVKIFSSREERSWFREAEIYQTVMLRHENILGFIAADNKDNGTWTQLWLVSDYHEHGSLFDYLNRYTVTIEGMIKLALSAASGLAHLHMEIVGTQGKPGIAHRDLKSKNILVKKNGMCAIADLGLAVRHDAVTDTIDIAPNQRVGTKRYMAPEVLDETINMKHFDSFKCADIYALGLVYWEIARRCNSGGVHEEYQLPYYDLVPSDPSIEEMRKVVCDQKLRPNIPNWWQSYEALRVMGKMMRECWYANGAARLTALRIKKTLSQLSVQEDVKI
The following applies: read-out: Inhibitory effect (%) ACVR1B. How it is done:
as §1

In a further experiment the target is T4, EPHA2 (Homo sapiens, UniProt P29317).
T4 construct: purchased Proqinase, Germany
Conditions: read-out: Inhibitory effect (%) EPHA2. The procedure: as §1

The target in another experiment is T5, DAPK1 (Homo sapiens, UniProt P53355).
T5 construct: purchased Proqinase, Germany
The following applies: read-out: Inhibitory effect (%) DAPK1. The procedure: as §1

Another experiment deals with T6, SLK (Homo sapiens, UniProt Q9H2G2).
T6 construct: purchased ProQinase (33PanQinase Activity Assay)
The following applies: read-out: Inhibitory effect (%) SLK. The procedure:
as §1

The target of another experiment is T7, PLK1 (Homo sapiens, UniProt P53350).
T7 construct: purchased ProQinase (33PanQinase Activity Assay)
Conditions: read-out: Inhibitory effect (%) PLK1. The procedure: as §1

The target of the next experiment is T8, PLK4 (Homo sapiens, UniProt O00444).
T8 construct: purchased ProQinase (33PanQinase Activity Assay)
T8 sequence (O00444 1-970): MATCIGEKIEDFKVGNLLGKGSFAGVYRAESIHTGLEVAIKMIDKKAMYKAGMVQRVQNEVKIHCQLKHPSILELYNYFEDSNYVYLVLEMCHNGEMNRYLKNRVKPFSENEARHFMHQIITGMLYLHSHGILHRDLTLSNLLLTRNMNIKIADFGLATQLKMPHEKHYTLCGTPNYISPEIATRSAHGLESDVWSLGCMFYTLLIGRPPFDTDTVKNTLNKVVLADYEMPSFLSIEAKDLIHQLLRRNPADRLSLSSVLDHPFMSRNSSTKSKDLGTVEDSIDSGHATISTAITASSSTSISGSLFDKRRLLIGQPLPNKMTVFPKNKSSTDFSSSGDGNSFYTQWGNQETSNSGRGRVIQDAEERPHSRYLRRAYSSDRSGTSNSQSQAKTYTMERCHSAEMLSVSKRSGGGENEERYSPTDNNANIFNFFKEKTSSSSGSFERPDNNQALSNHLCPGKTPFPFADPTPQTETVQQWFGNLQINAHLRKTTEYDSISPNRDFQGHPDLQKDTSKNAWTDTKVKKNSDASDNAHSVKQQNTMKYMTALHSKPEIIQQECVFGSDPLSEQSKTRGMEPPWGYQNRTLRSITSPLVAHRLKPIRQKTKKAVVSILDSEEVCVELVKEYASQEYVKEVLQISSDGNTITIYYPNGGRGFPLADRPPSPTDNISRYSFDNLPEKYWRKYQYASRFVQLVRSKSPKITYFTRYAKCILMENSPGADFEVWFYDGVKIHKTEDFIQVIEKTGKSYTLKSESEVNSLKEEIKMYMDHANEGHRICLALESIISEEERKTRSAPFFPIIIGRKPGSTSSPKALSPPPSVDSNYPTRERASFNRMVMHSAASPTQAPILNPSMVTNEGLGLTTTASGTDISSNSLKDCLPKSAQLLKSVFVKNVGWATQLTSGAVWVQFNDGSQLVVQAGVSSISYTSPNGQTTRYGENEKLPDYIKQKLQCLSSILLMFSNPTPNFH
The following applies: read-out: Inhibitory effect (%) PLK4. The procedure:
as §1

The next experiment deals with T9, KIT (Homo sapiens, UniProt P10721).
T9 construct: purchased ProQinase (33PanQinase Activity Assay)
The following applies: read-out: Inhibitory effect (%) KIT. How it is done:
as §1

In another experiment the target is T10, HIPK1 (Homo sapiens, UniProt Q86Z02).
T10 construct: purchased ProQinase (33PanQinase Activity Assay)
Conditions: read-out: Inhibitory effect (%) HIPK1. How it is done: as §1

T6 sequence (Q9H2G2 whole entry): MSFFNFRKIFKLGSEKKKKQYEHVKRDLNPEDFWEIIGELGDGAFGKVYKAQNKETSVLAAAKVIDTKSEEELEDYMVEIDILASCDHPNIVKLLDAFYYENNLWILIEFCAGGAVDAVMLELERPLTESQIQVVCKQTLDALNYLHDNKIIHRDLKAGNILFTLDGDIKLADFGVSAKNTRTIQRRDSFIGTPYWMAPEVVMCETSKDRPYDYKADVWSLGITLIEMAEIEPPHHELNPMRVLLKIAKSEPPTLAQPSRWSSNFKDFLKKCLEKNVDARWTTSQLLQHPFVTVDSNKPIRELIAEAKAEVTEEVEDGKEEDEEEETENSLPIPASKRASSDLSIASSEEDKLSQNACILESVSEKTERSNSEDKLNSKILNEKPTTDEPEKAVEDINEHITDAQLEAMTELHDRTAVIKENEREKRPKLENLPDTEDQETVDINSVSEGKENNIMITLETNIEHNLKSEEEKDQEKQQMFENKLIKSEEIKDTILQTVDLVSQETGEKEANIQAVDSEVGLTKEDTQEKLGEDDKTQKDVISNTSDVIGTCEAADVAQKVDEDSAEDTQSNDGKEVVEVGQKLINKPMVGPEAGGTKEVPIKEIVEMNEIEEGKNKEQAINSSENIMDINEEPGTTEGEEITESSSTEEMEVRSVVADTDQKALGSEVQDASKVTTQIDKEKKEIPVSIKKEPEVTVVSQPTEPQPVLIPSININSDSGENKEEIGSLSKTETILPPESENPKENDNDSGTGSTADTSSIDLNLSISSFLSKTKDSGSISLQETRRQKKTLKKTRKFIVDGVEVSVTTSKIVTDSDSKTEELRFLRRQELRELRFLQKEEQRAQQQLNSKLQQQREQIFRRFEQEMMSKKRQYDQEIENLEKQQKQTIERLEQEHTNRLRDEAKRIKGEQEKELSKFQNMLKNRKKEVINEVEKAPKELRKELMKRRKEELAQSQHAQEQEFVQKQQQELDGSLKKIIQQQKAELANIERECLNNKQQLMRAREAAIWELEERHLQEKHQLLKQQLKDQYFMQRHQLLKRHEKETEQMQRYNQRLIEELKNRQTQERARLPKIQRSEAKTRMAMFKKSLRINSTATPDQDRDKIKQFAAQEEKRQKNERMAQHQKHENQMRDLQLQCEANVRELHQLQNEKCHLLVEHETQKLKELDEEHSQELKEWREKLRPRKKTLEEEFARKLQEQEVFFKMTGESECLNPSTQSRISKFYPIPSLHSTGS
T1 sequence (Q9P1W9 whole entry): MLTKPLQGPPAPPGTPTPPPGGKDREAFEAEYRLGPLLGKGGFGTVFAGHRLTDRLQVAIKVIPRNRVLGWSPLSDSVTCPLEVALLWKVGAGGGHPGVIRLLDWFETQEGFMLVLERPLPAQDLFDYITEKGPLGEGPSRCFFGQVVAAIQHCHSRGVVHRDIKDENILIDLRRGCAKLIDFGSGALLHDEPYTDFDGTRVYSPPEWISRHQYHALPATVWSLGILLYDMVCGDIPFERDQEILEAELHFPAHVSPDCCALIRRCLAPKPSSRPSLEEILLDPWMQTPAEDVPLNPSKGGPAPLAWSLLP
T4 sequence (P29317 24-976): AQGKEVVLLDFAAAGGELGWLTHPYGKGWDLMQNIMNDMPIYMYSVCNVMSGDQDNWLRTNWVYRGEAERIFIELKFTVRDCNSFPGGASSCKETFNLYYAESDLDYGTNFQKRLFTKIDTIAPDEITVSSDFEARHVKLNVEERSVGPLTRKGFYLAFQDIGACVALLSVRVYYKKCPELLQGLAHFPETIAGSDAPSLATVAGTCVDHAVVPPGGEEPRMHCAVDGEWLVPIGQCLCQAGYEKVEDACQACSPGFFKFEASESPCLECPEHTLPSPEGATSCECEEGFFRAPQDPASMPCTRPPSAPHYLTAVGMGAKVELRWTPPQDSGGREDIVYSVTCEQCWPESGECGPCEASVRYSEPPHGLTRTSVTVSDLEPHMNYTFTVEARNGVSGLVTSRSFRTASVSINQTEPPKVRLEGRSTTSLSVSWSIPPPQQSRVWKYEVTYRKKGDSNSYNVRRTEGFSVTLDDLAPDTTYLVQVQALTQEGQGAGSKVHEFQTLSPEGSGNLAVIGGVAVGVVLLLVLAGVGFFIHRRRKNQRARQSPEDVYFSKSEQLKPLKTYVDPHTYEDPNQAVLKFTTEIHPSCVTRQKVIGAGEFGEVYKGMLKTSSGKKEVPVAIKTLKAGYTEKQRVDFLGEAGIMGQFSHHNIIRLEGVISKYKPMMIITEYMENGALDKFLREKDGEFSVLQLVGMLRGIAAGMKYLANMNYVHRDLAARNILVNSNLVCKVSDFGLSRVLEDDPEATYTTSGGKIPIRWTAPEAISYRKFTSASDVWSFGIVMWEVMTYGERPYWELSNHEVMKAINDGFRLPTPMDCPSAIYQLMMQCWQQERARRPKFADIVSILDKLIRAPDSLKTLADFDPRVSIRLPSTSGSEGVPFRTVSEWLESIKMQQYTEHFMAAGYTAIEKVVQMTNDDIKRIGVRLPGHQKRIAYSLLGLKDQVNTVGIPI
T7 sequence (P53350 whole entry): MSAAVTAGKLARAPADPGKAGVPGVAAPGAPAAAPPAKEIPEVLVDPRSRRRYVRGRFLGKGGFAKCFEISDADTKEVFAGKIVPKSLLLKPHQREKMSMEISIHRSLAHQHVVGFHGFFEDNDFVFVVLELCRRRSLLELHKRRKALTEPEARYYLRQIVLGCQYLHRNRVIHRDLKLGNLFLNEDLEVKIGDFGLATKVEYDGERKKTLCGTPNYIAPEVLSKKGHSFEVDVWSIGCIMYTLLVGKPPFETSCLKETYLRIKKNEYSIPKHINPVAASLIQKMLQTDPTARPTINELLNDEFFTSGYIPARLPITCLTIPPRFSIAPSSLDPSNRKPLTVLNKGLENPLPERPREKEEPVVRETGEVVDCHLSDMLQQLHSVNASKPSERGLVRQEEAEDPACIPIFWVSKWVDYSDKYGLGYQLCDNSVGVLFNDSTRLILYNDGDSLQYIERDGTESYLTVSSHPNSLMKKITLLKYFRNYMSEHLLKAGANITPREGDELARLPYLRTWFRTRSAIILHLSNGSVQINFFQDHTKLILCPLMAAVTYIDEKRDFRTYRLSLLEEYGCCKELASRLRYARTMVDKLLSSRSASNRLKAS
T10 sequence (Q86Z02 whole entry): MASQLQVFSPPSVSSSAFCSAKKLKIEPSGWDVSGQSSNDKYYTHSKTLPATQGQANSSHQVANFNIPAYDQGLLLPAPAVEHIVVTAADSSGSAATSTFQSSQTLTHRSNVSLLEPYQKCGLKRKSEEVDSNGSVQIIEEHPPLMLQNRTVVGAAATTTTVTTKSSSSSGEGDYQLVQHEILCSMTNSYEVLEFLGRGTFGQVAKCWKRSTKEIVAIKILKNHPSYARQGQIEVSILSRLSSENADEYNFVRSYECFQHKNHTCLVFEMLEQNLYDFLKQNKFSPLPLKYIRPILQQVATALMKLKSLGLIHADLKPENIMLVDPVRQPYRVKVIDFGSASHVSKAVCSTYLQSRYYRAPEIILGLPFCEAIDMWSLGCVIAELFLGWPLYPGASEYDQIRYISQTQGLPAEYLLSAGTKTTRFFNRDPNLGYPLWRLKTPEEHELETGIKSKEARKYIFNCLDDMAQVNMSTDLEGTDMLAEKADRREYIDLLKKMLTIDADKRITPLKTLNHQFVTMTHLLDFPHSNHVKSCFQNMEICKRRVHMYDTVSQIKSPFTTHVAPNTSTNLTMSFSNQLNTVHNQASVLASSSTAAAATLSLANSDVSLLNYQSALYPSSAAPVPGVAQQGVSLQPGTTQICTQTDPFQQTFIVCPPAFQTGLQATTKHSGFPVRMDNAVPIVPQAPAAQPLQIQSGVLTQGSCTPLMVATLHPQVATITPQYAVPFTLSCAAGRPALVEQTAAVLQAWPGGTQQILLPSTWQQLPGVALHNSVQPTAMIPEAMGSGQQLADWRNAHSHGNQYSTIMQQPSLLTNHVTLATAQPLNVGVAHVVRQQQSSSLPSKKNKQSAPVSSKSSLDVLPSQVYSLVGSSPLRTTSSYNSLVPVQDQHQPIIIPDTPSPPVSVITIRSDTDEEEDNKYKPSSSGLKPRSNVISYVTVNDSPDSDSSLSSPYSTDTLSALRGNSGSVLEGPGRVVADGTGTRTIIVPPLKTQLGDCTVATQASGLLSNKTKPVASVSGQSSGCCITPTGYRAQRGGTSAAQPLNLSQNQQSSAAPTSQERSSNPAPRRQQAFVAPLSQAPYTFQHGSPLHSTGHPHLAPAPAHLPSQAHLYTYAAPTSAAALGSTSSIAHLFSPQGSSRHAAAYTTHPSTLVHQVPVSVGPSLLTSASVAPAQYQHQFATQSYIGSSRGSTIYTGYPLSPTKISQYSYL

`c1ccc2c(-c3cnn4cc(-c5ccc(N6CCNCC6)cc5)cnc34)ccnc2c1` [LDN-193189, reference compound]: the inhibition at 0.1 µM was 6.22% at PIM2; -23.6% on PHKG2; 23.9% on ACVR1B; -17.2% at EPHA2; 11.3% at DAPK1; -18.4% at SLK. Also, the inhibition at 0.1 µM at PLK1 was -21.7%; at PLK4 it was -34.4%; on KIT it was -20.3%; on HIPK1, -13.4%.
For the compound `CN1CCc2cccc(c2)Nc2nccc(n2)N2CCCc3cc(ccc32)C1` [OD16], the inhibition at 0.1 µM was -5.63% on PIM2; 1.87% on PHKG2; 7.78% on ACVR1B; -21.9% on EPHA2; -6.59% at DAPK1; 26.5% at SLK. Also, the inhibition at 0.1 µM at PLK1 is -5.35%; on PLK4, 41.4%; at KIT it was 33%; on HIPK1, -7.23%.
`CN1CCC(=O)NCCNc2ccn3ncc(c3n2)-c2cccc(c2)C1` [OD29]: the inhibition at 0.1 µM on PIM2 was 1.97%; at PHKG2, -1.93%; on ACVR1B, 5.71%; on EPHA2 it was 10.4%; on DAPK1, -3.89%; on SLK, 27.7%. The inhibition at 0.1 µM on PLK1 was -21.2%; at PLK4, 4.1%; at KIT, 7.49%; on HIPK1 it was 6.23%.
